From patent US8741889B2, “Method of treating non-small cell lung cancer and colon cancer with gamma-secretase inhibitor” (Hoffmann-La Roche Inc, priority 2008, dated 2014)

Test system: A549 cells
Assay: FACS cell cycle analysis in A549 cells
Format: cell-based, human
Protocol: The A549 cell line was obtained from the American Tissue Culture Collection (ATCC), Manassas, Va. and maintained in Ham's media supplemented with 10% heat-inactivated Fetal Bovine Serum (HI-FBS; GIBCO/BRL, Gaithersburg, Md.) and 2 mM L-glutamine (GIBCO/BRL). 1×10^6 A549 cells were seeded in […] plates for FACS analysis and 3×10^5 cells per well were seeded in 6-well plate for Western blot analysis. Cells were allowed to attach for 24 hours and then treated with compound (1) compound at the following concentrations: 0.1, 0.25, 0.5, 1, 2.5 and 5 μM. Cells were incubated for either 72 or 120 hours and collected for FACS analysis.
Cells were incubated with compound (1) for 72 or 120 hours, harvested by scraping, washed twice in phosphate-buffered saline (PBS), spun down at 1.5×10^3 rpm, and fixed at −20° C. overnight with 70% ethanol. Cells were then analyzed using MPM2-FITC and propidium iodide (PI) double staining (Becton Dickinson, San Jose, Calif.). Briefly, cells were washed twice with cold PBS containing 0.05% Tween-20 (PBST), incubated for 2 hours with anti-Phospho Ser/Thr MPM2 antibody (#05-368, Upstate/Millipore, Bullerica, Mass.), washed with PBST again, incubated in the dark with secondary IgG-FITC antibody (#AP308F, Chemicon, Temecula, Calif.), washed with PBST and incubated with PI/RNase solution (Becton Dickinson, San Jose, Calif.) for additional 30 min at 37° C.
Samples were analyzed on a FACScan flow cytometer (Becton Dickinson, San Jose, Calif.) equipped with a 488 nm argon ion laser. Green fluorescein isothiocyanate (FITC) fluorescence was collected with a 530/30 nm bandpass filter using logarithmic amplification and orange emission from propidium iodide (PI) was filtered through a 585/42 nm bandpass filter using linear amplification. A minimum of 20,000 events was collected on each sample. Cell cycle analysis of DNA histograms was performed with FlowJo software (Tree Star Inc., Ashland, Oreg.).

CC(C)(C(=O)NCC(F)(F)C(F)(F)F)C(=O)N[C@@H]1C(=O)Nc2ccccc2-c2ccccc21 [Compound (1), 2,2-Dimethyl-N—((S)-6-oxo-6,7-dihydro-5H-dibenzo[b,d]azepin-7-yl)-N′-(2,2,3,3,3-pentafluoro-propyl)-malonamide]
G1, % (0.10 μM, 72 hrs): 63.1% | G2/M, % (0.10 μM, 72 hrs): 23.3% | subG1, % (0.10 μM, 72 hrs): 6.5% | G1, % (0.10 μM, 120 hrs): 59.0% | G2/M, % (0.10 μM, 120 hrs): 24.1% | subG1, % (0.10 μM, 120 hrs): 6.8% | G1, % (0.25 μM, 72 hrs): 64.8% | G2/M, % (0.25 μM, 72 hrs): 20.3% | subG1, % (0.25 μM, 72 hrs): 5.9% | G1, % (0.25 μM, 120 hrs): 61.1% | G2/M, % (0.25 μM, 120 hrs): 23.8% | subG1, % (0.25 μM, 120 hrs): 6.7% | G1, % (0.50 μM, 72 hrs): 66.6% | G2/M, % (0.50 μM, 72 hrs): 19.4% | subG1, % (0.50 μM, 72 hrs): 4.3% | G1, % (0.50 μM, 120 hrs): 58.6% | G2/M, % (0.50 μM, 120 hrs): 23.3% | subG1, % (0.50 μM, 120 hrs): 9.6% | G1, % (1.0 μM, 72 hrs): 64% | G2/M, % (1.0 μM, 72 hrs): 21.5% | subG1, % (1.0 μM, 72 hrs): 6.6% | G1, % (1.0 μM, 120 hrs): 60.9% | G2/M, % (1.0 μM, 120 hrs): 19.8% | subG1, % (1.0 μM, 120 hrs): 8.0% | G1, % (5.0 μM, 72 hrs): 64.9% | G2/M, % (5.0 μM, 72 hrs): 20% | subG1, % (5.0 μM, 72 hrs): 8.4% | G1, % (5.0 μM, 120 hrs): 58.7% | G2/M, % (5.0 μM, 120 hrs): 18.3% | subG1, % (5.0 μM, 120 hrs): 13.7%
